The text below walks through data of patent US10316049B2, “Tank-binding kinase inhibitor compounds” (Gilead Sciences, Inc., priority 2015, dated 2019).

One test has as its target T1, TBK1 (Homo sapiens, UniProt Q9UHD2).
T1 construct: TBK1 and IKKε were expressed and purified as full length recombinant proteins; made in house
T1 sequence (Q9UHD2 1-729): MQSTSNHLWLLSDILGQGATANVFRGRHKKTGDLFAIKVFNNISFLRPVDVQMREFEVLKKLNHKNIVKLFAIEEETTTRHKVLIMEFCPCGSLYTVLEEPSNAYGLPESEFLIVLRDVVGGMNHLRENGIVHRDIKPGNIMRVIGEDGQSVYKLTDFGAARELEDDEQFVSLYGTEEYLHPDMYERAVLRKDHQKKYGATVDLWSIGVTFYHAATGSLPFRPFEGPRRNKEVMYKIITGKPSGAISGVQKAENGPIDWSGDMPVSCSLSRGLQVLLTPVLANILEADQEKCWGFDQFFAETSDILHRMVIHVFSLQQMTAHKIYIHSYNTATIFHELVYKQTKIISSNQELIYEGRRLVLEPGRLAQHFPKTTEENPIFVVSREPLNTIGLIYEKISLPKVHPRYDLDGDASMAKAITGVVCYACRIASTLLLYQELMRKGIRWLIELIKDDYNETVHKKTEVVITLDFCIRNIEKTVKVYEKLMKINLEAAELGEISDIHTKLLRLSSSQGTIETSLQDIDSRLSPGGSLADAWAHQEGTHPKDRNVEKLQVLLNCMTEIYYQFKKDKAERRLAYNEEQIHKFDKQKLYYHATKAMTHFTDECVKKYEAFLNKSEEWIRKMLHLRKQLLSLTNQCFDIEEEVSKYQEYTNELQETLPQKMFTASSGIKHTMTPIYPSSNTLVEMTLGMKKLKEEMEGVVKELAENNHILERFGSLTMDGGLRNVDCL
In words: TR-FRET enzymatic activity assay, TBK1. Further: full length recombinant TBK1 at 2.5 nM. It is filed as biochemical. The procedure, abridged: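 TR-FRET detected phosphorylation of a biotinylated serine/threonine peptide using 125 nM streptavidin XL665 plus europium-labelled anti-phospho antibody. Reactions with full-length recombinant kinase ran 240 min at 25 °C before EDTA quench. Values are geometric-mean IC50s (n ≥ 4) from four-parameter dose-response fits against staurosporine and DMSO controls.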

For the next test, the target named is T2, IKKε (Homo sapiens, UniProt Q14164).
T2 construct: TBK1 and IKKε were expressed and purified as full length recombinant proteins; made in house
T2 sequence (Q14164 1-716): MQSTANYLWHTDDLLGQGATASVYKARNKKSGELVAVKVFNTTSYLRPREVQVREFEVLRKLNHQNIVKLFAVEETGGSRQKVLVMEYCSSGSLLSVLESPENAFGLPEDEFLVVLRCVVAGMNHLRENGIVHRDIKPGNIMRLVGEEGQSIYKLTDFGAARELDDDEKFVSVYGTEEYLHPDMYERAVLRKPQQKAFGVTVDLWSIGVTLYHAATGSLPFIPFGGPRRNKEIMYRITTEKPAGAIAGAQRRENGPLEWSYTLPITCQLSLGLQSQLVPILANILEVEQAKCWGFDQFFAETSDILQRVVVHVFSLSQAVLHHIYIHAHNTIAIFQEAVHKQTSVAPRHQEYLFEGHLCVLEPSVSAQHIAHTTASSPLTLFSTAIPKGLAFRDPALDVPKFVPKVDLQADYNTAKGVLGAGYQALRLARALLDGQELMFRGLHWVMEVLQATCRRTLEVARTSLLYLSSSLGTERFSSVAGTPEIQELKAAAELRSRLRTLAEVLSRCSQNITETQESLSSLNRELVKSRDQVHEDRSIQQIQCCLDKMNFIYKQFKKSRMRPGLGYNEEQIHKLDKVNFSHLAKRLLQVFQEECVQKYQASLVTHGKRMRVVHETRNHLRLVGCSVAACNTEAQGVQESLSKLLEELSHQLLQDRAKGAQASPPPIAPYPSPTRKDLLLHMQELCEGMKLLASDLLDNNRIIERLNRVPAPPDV
Nature of the test: TR-FRET enzymatic activity assay, IKKε. Further: full length recombinant IKKε at 0.3 nM. It is filed as biochemical. Particulars: read-out: IKKϵ IC50. Summed up: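 IC50 values are geometric means of at least four determinations, fitted to a four-parameter curve after normalising to 1 μM staurosporine and DMSO. Signal: Eu-cryptate anti-phospho antibody plus 125 nM streptavidin-XL665 on a biotinylated peptide. Full-length recombinant enzyme reacted 240 min, 25 °C, then EDTA-quenched.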
(TR-FRET usually uses a lanthanide donor and a delayed reading to cut background.)

pIC50: −log10 of the molar value.

With `Cc1n[nH]c(C(=O)N2CC[C@H](Oc3ccc(-c4cc(NC(=O)C5CC5)ncn4)cc3C#N)[C@H](F)C2)n1` [Example 30, N-(6-(3-cyano-4-(((3R,4S)-3-fluoro-1-(3-methyl-1H-1,2,4-triazole-5-carbonyl)piperidin-4-yl)oxy)phenyl)pyrimidin-4-yl)cyclopropanecarboxamide], the pIC50 (usually the negative decadic logarithm of the IC50, by convention in mol/L) was 8.14 against TBK1 and 8.13 on IKKε.
In the case of `C[C@H](N)C(=O)OCC(=O)N1CC[C@H](Oc2ccc(-c3cc(NC(=O)C4CC4)ncn3)cc2C#N)C(F)(F)C1` [Example 159, 2-((S)-4-(2-cyano-4-(6-(cyclopropanecarboxamido)pyrimidin-4-yl)phenoxy)-3,3-difluoropiperidin-1-yl)-2-oxoethyl L-Alaninate], the pIC50 against TBK1 was 7.89; on IKKε, 7.41.
In the same order, the values of `Cn1cc([C@@H]2C[C@H]2C(=O)Nc2cc(-c3ccc(O[C@H]4CCN(C(=O)[C@@H](O)CO)C[C@H]4F)c(C#N)c3)ccn2)cn1` [Example 130, (1,2-Trans)-N-(4-(3-cyano-4-(((3R,4S)-1-((S)-2,3-dihydroxypropanoyl)-3-fluoropiperidin-4-yl)oxy)phenyl)pyridin-2-yl)-2-(1-methyl-1H-pyrazol-4-yl)cyclopropane-1-carboxamide] are 8.21 and 7.81.
Take `C[C@H]1CCCN1c1ccc(-c2ccnc(NC(=O)C3CC3)c2)cc1C#N` [Example 92, (S)—N-(4-(3-cyano-4-(2-methylpyrrolidin-1-yl)phenyl)pyridin-2-yl)cyclopropanecarboxamide]: the figures for the pIC50 on TBK1 and at IKKε were 7.69 and 6.89, respectively.
On the same counts, the results for `N#Cc1cc(-c2ccnc(NC(=O)C3CCCCC3)c2)ccc1OC1CCOCC1` [Example 1, N-(4-(3-cyano-4-((tetrahydro-2H-pyran-4-yl)oxy)phenyl)pyridin-2-yl)cyclohexanecarboxamide] are 6.12 and 6.48.
On the same counts, the results for `C[C@H](O)C(=O)N1CC[C@H](Oc2ccc(-c3ccnc(NC(=O)C4CC4)c3)cc2C#N)[C@H](F)C1` [Example 9, N-(4-(3-cyano-4-(((3R,4S)-3-fluoro-1-((S)-2-hydroxypropanoyl)piperidin-4-yl)oxy)phenyl)pyridin-2-yl)cyclopropanecarboxamide] are 7.82 and 7.33.
In the same order, the values of `Cn1cc([C@@H]2C[C@H]2C(=O)Nc2cc(-c3ccc(OC4CCOCC4)c(C#N)c3)ccn2)cn1` (relative stereo) [Example 120, (1,2-Trans)-N-(4-(3-cyano-4-((tetrahydro-2H-pyran-4-yl)oxy)phenyl)pyridin-2-yl)-2-(1-methyl-1H-pyrazol-4-yl)cyclopropane-1-carboxamide] are 7.54 and 6.74.
Take `Cc1nnc([C@@H]2C[C@H]2C(=O)Nc2cc(-c3ccc(O[C@H]4CCN(C(=O)CO)C[C@H]4F)c(C#N)c3)ccn2)o1` [Example 156, Trans-N-(4-(3-cyano-4-(((3R,4S)-3-fluoro-1-(2-hydroxyacetyl)piperidin-4-yl)oxy)phenyl)pyridin-2-yl)-2-(5-methyl-1,3,4-oxadiazol-2-yl)cyclopropane-1-carboxamide]: the pIC50 on TBK1 was 7.44; on IKKε, 7.39.
With `Cn1cc([C@@H]2C[C@H]2C(=O)Nc2cc(-c3ccc(O[C@H]4CCN(C(=O)CO)C[C@H]4F)c(C#N)c3)ccn2)cn1` (single isomer, unassigned) [Example 125], the pIC50 was 7.72 on TBK1 and 7.50 at IKKε.
For the molecule `N#Cc1cc(-c2ccnc(NC(=O)C3CC3(F)F)c2)ccc1O[C@H]1CCN(C(=O)CO)C[C@H]1F` (stereo partly drawn) [Example 58, N-(4-(3-cyano-4-(((3R,4S)-3-fluoro-1-(2-hydroxyacetyl)piperidin-4-yl)oxy)phenyl)pyridin-2-yl)-2,2-difluorocyclopropane-1-carboxamide], the values for the pIC50 at TBK1 and on IKKε were 7.31 and 7.52, respectively.
In the same order, the values of `Cc1noc([C@@H]2C[C@H]2C(=O)Nc2cc(-c3ccc(OC4CCOCC4)c(C#N)c3)ccn2)n1` [Example 108, (1R,2R)—N-(4-(3-cyano-4-((tetrahydro-2H-pyran-4-yl)oxy)phenyl)pyridin-2-yl)-2-(3-methyl-1,2,4-oxadiazol-5-yl)cyclopropane-1-carboxamide] are 6.73 and 6.49.
On the same counts, the results for `N#Cc1cc(-c2ccnc(NC(=O)C3C4CC3C4C(N)=O)c2)ccc1OC1CCOCC1` (centres unmarked) [Example 56, N-(4-(3-cyano-4-((tetrahydro-2H-pyran-4-yl)oxy)phenyl)pyridin-2-yl)bicyclo[1.1.1]pentane-2,4-dicarboxamide] are less than 6.00 and 6.35.
On the same counts, the results for `Cc1n[nH]c(C(=O)N2CC[C@H](Oc3ccc(-c4cc(NC(=O)C5CC5)ncn4)cc3C#N)C(F)(F)C2)n1` [Example 34, (S)—N-(6-(3-cyano-4-((3,3-difluoro-1-(3-methyl-1H-1,2,4-triazole-5-carbonyl)piperidin-4-yl)oxy)phenyl)pyrimidin-4-yl)cyclopropanecarboxamide] are 8.38 and 8.34.
`N#Cc1cc(-c2ccnc(NC(=O)C3CC3c3nc[nH]n3)c2)ccc1O[C@H]1CCN(C(=O)CO)C[C@H]1F` (stereo partly drawn) [Example 76, N-(4-(3-Cyano-4-(((3R,4S)-3-fluoro-1-(2-hydroxyacetyl)piperidin-4-yl)oxy)phenyl)pyridin-2-yl)-2-(1H-1,2,4-triazol-3-yl)cyclopropane-1-carboxamide]: the pIC50 at TBK1 was 6.59; at IKKε it was 6.45.
For the molecule `N#Cc1cc(-c2ccnc(NC(=O)[C@H]3C[C@@H]3c3cccc(F)c3)c2)ccc1OC1CCOCC1` (relative stereo) [Example 119, (1,2-Trans)-N-(4-(3-cyano-4-((tetrahydro-2H-pyran-4-yl)oxy)phenyl)pyridin-2-yl)-2-(3-fluorophenyl)cyclopropane-1-carboxamide], the pIC50 is 7.00 at TBK1 and less than 6.00 at IKKε.
On the same counts, the results for `N#Cc1cc(-c2ccnc(NC(=O)C3(CF)CC3)c2)ccc1OC1CCOCC1` [Example 49, N-(4-(3-cyano-4-((tetrahydro-2H-pyran-4-yl)oxy)phenyl)pyridin-2-yl)-1-(fluoromethyl)cyclopropane-1-carboxamide] are less than 6.00 and less than 6.00.
In the same order, the values of `N#Cc1cc(-c2ccnc(NC(=O)C3CC34CCOC4)c2)ccc1OC1CCOCC1` (centres unmarked) [Example 117, N-(4-(3-Cyano-4-((tetrahydro-2H-pyran-4-yl)oxy)phenyl)pyridin-2-yl)-5-oxaspiro[2.4]heptane-1-carboxamide] are 6.07 and less than 6.00.
Take `COc1ccc([C@@H]2C[C@H]2C(=O)Nc2cc(-c3ccc(O[C@H]4CCN(C(=O)CO)CC4(F)F)c(C#N)c3)ncn2)cn1` [Example 113, (1R,2R)—N-(6-(3-cyano-4-(((S)-3,3-difluoro-1-(2-hydroxyacetyl)piperidin-4-yl)oxy)phenyl)pyrimidin-4-yl)-2-(6-methoxypyridin-3-yl)cyclopropane-1-carboxamide]: the pIC50 against TBK1 was 8.09; at IKKε it was less than 6.00.
On the same counts, the results for `N#Cc1cc(-c2ccnc(NC(=O)C3CC3)c2)ncc1O[C@H]1CCN(C(=O)CO)C[C@H]1F` [Example 24, N-(4-cyano-5-(((3R,4S)-3-fluoro-1-(2-hydroxyacetyl)piperidin-4-yl)oxy)-[2,4′-bipyridin]-2′-yl)cyclopropanecarboxamide] are 7.06 and 6.72.
